From US8652846B2, “Medium derived from stem cells as a pharmaceutical composition” (Omnicyte Limited, priority 2008, dated 2014)

Key:
[1] = system: Rat liver cells; test: Bilirubin levels of liver cells exposed to thioacetamide, OmniCytes without cell contact; assay type: cell-based; settings: liver cells exposed to TAA only
Description: (§1) Rat liver cells were exposed to the hepatotoxin thioacetamide (TAA), which induces liver damage such as cirrhosis and fibrosis. The control was only exposed to TAA, whereas the experimental group was also exposed to OmniCytes without cell contact. Cell viability (expressed as mitochondrial dehydrogenase activity) was assessed.
Liver function was also assayed by measuring bilirubin levels. Aberrantly high levels of bilirubin are typically indicative of a liver disorder or malfunction.

[2] = system: Rat liver cells; test: Viability of liver cells exposed to thioacetamide (mitochondrial dehydrogenase activity), OmniCytes without cell contact; assay type: cell-based; settings: rat liver cells exposed to TAA only
Description: as §1

[3] = system: A549 lung cancer cell line; test: Apoptosis of A549 cells with OmniCytes in Transwell assay (no cell contact), DAPI nuclear staining, immuno-fluorescent microscopy; assay type: cell-based, human; settings: A549, control group: staurosporine alone
Description: 3×10^5 cancer cells were plated into the bottom of 24 mm Transwell 6 well plates with or without […] pore polycarbonate membrane insert (Corning Life Sciences, USA) with 2 mL of the appropriate cell culture medium. Transwell plates with a polycarbonate membrane insert allow the exchange of soluble factors but prevent cell-cell contact, whereas Transwell plates without the membrane allow cell to cell contact. After 24 hours apoptosis was induced in cancer cells according to the designated protocol. Cells were incubated at 37° C. in 5% CO2/95% air. […]
(§2) To determine effect of OmniCytes on apoptosis, 3×10^5 OmniCytes were added 24 hours after the onset of apoptosis induction either to the top of the Transwell insert with 1 ml α-MEM (Gibco, UK) supplemented with 30% FBS (Gibco, UK) and 10% GM-MIX (for no contact conditions) or directly into the same well as the cells (for contact conditions). […] After 24 or 48 hours the inserts were removed and the cancer cells analysed for apoptosis and Bcl-2, Bcl-xL and Bax expression.
10^5 cells were fixed using 4% paraformaldehyde (PFA) for 15 minutes at room temperature and washed 3 times with PBS (Gibco, UK). […] Cells were visualised on a Zeiss fluorescent microscope and analysed using the Metamorph programme. […]
For each sample, a minimum of 5 random fields were assessed and at least 250 cells were counted. […]

[4] = system: A549 lung cancer cells; test: TNF-alpha blocking antibody study: A549 cells with staurosporine and OmniCytes without direct cell contact; assay type: cell-based, human; settings: A549, control: staurosporine, OmniCyte-free
Description: The effect of TNF-alpha blocking antibodies was tested. A549 lung cancer cells were exposed to staurosporine and OmniCytes were added without direct cell contact. The control was OmniCyte-free. TNF-alpha blocking antibodies (Abeam™, Cambridge, UK) at two different concentrations (5 or 10 μg/mL) were added.

[5] = system: A549 lung cancer cell line; test: Apoptosis of A549 cells with OmniCytes in Transwell assay (no cell contact), FACS Annexin V/7-AAD; assay type: cell-based, human; settings: A549, control group: staurosporine alone, Transwell with membrane
Description: (§3) Human non-small-cell lung cancer line A549 was obtained from American Type Culture Collection (catalogue number CCL-185, Rockville, Md., USA) and grown in Ham's F 12-K medium supplemented with 10% fetal bovine serum and 1% penicillin/streptomycin in a 37° C. humidified incubator with 5% CO2.
(§4) 3×10^5 cancer cells were plated into the bottom of 24 mm Transwell 6 well plates with or without […] pore polycarbonate membrane insert (Corning Life Sciences, USA) with 2 mL of the appropriate cell culture medium. […]
as §2
(§5) Apoptosis was analysed using the method of staining with fluorescein isothiocyanate (FITC)-Annexin V and 7-AAD-FITC previously described by Ikewaki et al. (2007). […] FITC-Annexin V staining was measured in FL1-H and FITC-7-AAD staining in FL3-H. […]

[6] = system: A549 lung cancer cell line; test: Apoptosis of A549 cells co-cultured with OmniCytes (direct cell contact), FACS Annexin V/7-AAD; assay type: cell-based, human; settings: A549, control group: staurosporine alone, plate without membrane
Description: as §3, §4, §2, §5

SMILES	bilirubin levels [1]	cell viability (mitochondrial dehydrogenase activity) [2]	apoptosis by nuclear staining (DAPI) [3]	apoptosis [4]	apoptosis (Annexin V positive cells) [5]	mean of apoptosis (Annexin V positive cells) [6]
CC(=N)S [TAA, thioacetamide]	caused bilirubin levels to rise	significantly decreased cell viability	–	–	–	–
CN[C@@H]1C[C@H]2O[C@@](C)([C@@H]1OC)n1c3ccccc3c3c4c(c5c6ccccc6n2c5c31)C(=O)NC4 [staurosporine]	–	–	18.32%±1.81	22.13%±0.74	26.85%±2.15	22.77%±4.87
